test system: BT-549; test: normalised viability (% of control), CellTiter-Blue; higher = more viable cells (100 = DMSO, 0 = benzethonium chloride kill control); conditions: 1 nM; incubation time: 72 h
In short: (§1)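 The reported figure is normalised viability at a single listed concentration of the series. Breast cancer cell lines (20 µl suspension) went onto 384-well plates holding compound in 5 µl medium for 72 h. CellTiter-Blue (2.5 µl, 2 h, 37 °C) was read by fluorescence at 560/590 nm, and each plate was scaled to vehicle at 100 and a positive kill control at 0.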

Going from C[C@H]1C[C@@H]2[C@H]([C@@H](O)C[C@@]3(C)[C@H]2CC[C@]3(O)C(=O)CO)[C@@]2(C)C=CC(=O)C=C12 [Methylprednisolone] to COc1cc([C@@H]2c3cc4c(cc3[C@@H](O[C@@H]3O[C@@H]5CO[C@@H](c6cccs6)O[C@H]5[C@H](O)[C@H]3O)[C@H]3COC(=O)[C@H]23)OCO4)cc(OC)c1O [Teniposide], the normalised viability falls from 93% to 85%.

Compared with CCc1cncnc1N1CCN(Cc2nc3ccc(C(F)(F)F)cc3[nH]2)CC1, Oc1ncc(N(CCCl)CCCl)c(O)n1 [Uracil mustard] is higher in normalised viability: 98.2% for the first, 101% for the second.

test system: CAL-51; test: as above; conditions: 0.1 nM; incubation time: 72 h
In short: as §1

Going from COc1cc2c(Oc3ccc4[nH]c(C)cc4c3F)ncnc2cc1OCCCN1CCCC1 [Cediranib] to C=CC(=O)N1CCC[C@@H](n2nc(-c3ccc(Oc4ccccc4)cc3)c3c(N)ncnc32)C1, the normalised viability rises from 91.3% to 93.1%.

same assay, conditions: 1 nM; incubation time: 72 h

First: NCCCNCCSP(=O)(O)O [Amifostine]
Second: Nc1nc2[nH]cc(CCc3ccc(C(=O)N[C@@H](CCC(=O)O)C(=O)O)cc3)c2c(=O)[nH]1 [Pemetrexed]
The normalised viability of the first is lower: 106% for the first, 109% for the second.

Compared with C[C@H]1C[C@@H]2[C@H]([C@@H](O)C[C@@]3(C)[C@H]2CC[C@]3(O)C(=O)CO)[C@@]2(C)C=CC(=O)C=C12 [Methylprednisolone], COc1cc([C@@H]2c3cc4c(cc3[C@@H](O[C@@H]3O[C@@H]5CO[C@@H](c6cccs6)O[C@H]5[C@H](O)[C@H]3O)[C@H]3COC(=O)[C@H]23)OCO4)cc(OC)c1O [Teniposide] is higher in normalised viability: 103% for the first, 105% for the second.

First: CCc1cncnc1N1CCN(Cc2nc3ccc(C(F)(F)F)cc3[nH]2)CC1
Second: Oc1ncc(N(CCCl)CCCl)c(O)n1 [Uracil mustard]
The normalised viability of the first is higher: 90.8% for the first, 90.7% for the second.

test system: MDA-MB-436; test: as above; conditions: 0.1 nM; incubation time: 72 h
In short: as §1

First: COc1cc2c(Oc3ccc4[nH]c(C)cc4c3F)ncnc2cc1OCCCN1CCCC1 [Cediranib]
Second: C=CC(=O)N1CCC[C@@H](n2nc(-c3ccc(Oc4ccccc4)cc3)c3c(N)ncnc32)C1
The normalised viability of the first is higher: 94.8% for the first, 91% for the second.

same assay, conditions: 1 nM; incubation time: 72 h

Compared with NCCCNCCSP(=O)(O)O [Amifostine], Nc1nc2[nH]cc(CCc3ccc(C(=O)N[C@@H](CCC(=O)O)C(=O)O)cc3)c2c(=O)[nH]1 [Pemetrexed] is higher in normalised viability: 102% for the first, 104% for the second.

Going from C[C@H]1C[C@@H]2[C@H]([C@@H](O)C[C@@]3(C)[C@H]2CC[C@]3(O)C(=O)CO)[C@@]2(C)C=CC(=O)C=C12 [Methylprednisolone] to COc1cc([C@@H]2c3cc4c(cc3[C@@H](O[C@@H]3O[C@@H]5CO[C@@H](c6cccs6)O[C@H]5[C@H](O)[C@H]3O)[C@H]3COC(=O)[C@H]23)OCO4)cc(OC)c1O [Teniposide], the normalised viability rises from 108% to 110%.

First: CCc1cncnc1N1CCN(Cc2nc3ccc(C(F)(F)F)cc3[nH]2)CC1
Second: Oc1ncc(N(CCCl)CCCl)c(O)n1 [Uracil mustard]
The normalised viability of the first is higher: 106% for the first, 96.3% for the second.

test system: Hs578T; test: as above; conditions: 0.1 nM; incubation time: 72 h
In short: as §1

Going from COc1cc2c(Oc3ccc4[nH]c(C)cc4c3F)ncnc2cc1OCCCN1CCCC1 [Cediranib] to C=CC(=O)N1CCC[C@@H](n2nc(-c3ccc(Oc4ccccc4)cc3)c3c(N)ncnc32)C1, the normalised viability rises from 92% to 119%.

same assay, conditions: 1 nM; incubation time: 72 h

Compared with NCCCNCCSP(=O)(O)O [Amifostine], Nc1nc2[nH]cc(CCc3ccc(C(=O)N[C@@H](CCC(=O)O)C(=O)O)cc3)c2c(=O)[nH]1 [Pemetrexed] is higher in normalised viability: 107% for the first, 114% for the second.

First: C[C@H]1C[C@@H]2[C@H]([C@@H](O)C[C@@]3(C)[C@H]2CC[C@]3(O)C(=O)CO)[C@@]2(C)C=CC(=O)C=C12 [Methylprednisolone]
Second: COc1cc([C@@H]2c3cc4c(cc3[C@@H](O[C@@H]3O[C@@H]5CO[C@@H](c6cccs6)O[C@H]5[C@H](O)[C@H]3O)[C@H]3COC(=O)[C@H]23)OCO4)cc(OC)c1O [Teniposide]
The normalised viability of the first is lower: 122% for the first, 127% for the second.

Compared with CCc1cncnc1N1CCN(Cc2nc3ccc(C(F)(F)F)cc3[nH]2)CC1, Oc1ncc(N(CCCl)CCCl)c(O)n1 [Uracil mustard] is higher in normalised viability: 106% for the first, 109% for the second.

test system: MDA-MB-453; test: as above; conditions: 0.1 nM; incubation time: 72 h
In short: as §1

First: COc1cc2c(Oc3ccc4[nH]c(C)cc4c3F)ncnc2cc1OCCCN1CCCC1 [Cediranib]
Second: C=CC(=O)N1CCC[C@@H](n2nc(-c3ccc(Oc4ccccc4)cc3)c3c(N)ncnc32)C1
The normalised viability of the first is lower: 82.5% for the first, 103% for the second.

same assay, conditions: 1 nM; incubation time: 72 h

First: NCCCNCCSP(=O)(O)O [Amifostine]
Second: Nc1nc2[nH]cc(CCc3ccc(C(=O)N[C@@H](CCC(=O)O)C(=O)O)cc3)c2c(=O)[nH]1 [Pemetrexed]
The normalised viability of the first is lower: 97.4% for the first, 101% for the second.

Compared with C[C@H]1C[C@@H]2[C@H]([C@@H](O)C[C@@]3(C)[C@H]2CC[C@]3(O)C(=O)CO)[C@@]2(C)C=CC(=O)C=C12 [Methylprednisolone], COc1cc([C@@H]2c3cc4c(cc3[C@@H](O[C@@H]3O[C@@H]5CO[C@@H](c6cccs6)O[C@H]5[C@H](O)[C@H]3O)[C@H]3COC(=O)[C@H]23)OCO4)cc(OC)c1O [Teniposide] is higher in normalised viability: 95.4% for the first, 113% for the second.

Going from CCc1cncnc1N1CCN(Cc2nc3ccc(C(F)(F)F)cc3[nH]2)CC1 to Oc1ncc(N(CCCl)CCCl)c(O)n1 [Uracil mustard], the normalised viability falls from 101% to 99.1%.

test system: BT-474; test: as above; conditions: 0.1 nM; incubation time: 72 h
In short: as §1

First: COc1cc2c(Oc3ccc4[nH]c(C)cc4c3F)ncnc2cc1OCCCN1CCCC1 [Cediranib]
Second: C=CC(=O)N1CCC[C@@H](n2nc(-c3ccc(Oc4ccccc4)cc3)c3c(N)ncnc32)C1
The normalised viability of the first is lower: 87.8% for the first, 107% for the second.

same assay, conditions: 1 nM; incubation time: 72 h

First: NCCCNCCSP(=O)(O)O [Amifostine]
Second: Nc1nc2[nH]cc(CCc3ccc(C(=O)N[C@@H](CCC(=O)O)C(=O)O)cc3)c2c(=O)[nH]1 [Pemetrexed]
The normalised viability of the first is lower: 85.7% for the first, 106% for the second.

Compared with C[C@H]1C[C@@H]2[C@H]([C@@H](O)C[C@@]3(C)[C@H]2CC[C@]3(O)C(=O)CO)[C@@]2(C)C=CC(=O)C=C12 [Methylprednisolone], COc1cc([C@@H]2c3cc4c(cc3[C@@H](O[C@@H]3O[C@@H]5CO[C@@H](c6cccs6)O[C@H]5[C@H](O)[C@H]3O)[C@H]3COC(=O)[C@H]23)OCO4)cc(OC)c1O [Teniposide] is lower in normalised viability: 108% for the first, 87.9% for the second.

Compared with CCc1cncnc1N1CCN(Cc2nc3ccc(C(F)(F)F)cc3[nH]2)CC1, Oc1ncc(N(CCCl)CCCl)c(O)n1 [Uracil mustard] is lower in normalised viability: 102% for the first, 86.6% for the second.

test system: CAL-120; test: as above; conditions: 0.1 nM; incubation time: 72 h
In short: as §1

Going from COc1cc2c(Oc3ccc4[nH]c(C)cc4c3F)ncnc2cc1OCCCN1CCCC1 [Cediranib] to C=CC(=O)N1CCC[C@@H](n2nc(-c3ccc(Oc4ccccc4)cc3)c3c(N)ncnc32)C1, the normalised viability falls from 112% to 81.3%.

same assay, conditions: 1 nM; incubation time: 72 h

Going from NCCCNCCSP(=O)(O)O [Amifostine] to Nc1nc2[nH]cc(CCc3ccc(C(=O)N[C@@H](CCC(=O)O)C(=O)O)cc3)c2c(=O)[nH]1 [Pemetrexed], the normalised viability rises from 73.3% to 87%.

Compared with C[C@H]1C[C@@H]2[C@H]([C@@H](O)C[C@@]3(C)[C@H]2CC[C@]3(O)C(=O)CO)[C@@]2(C)C=CC(=O)C=C12 [Methylprednisolone], COc1cc([C@@H]2c3cc4c(cc3[C@@H](O[C@@H]3O[C@@H]5CO[C@@H](c6cccs6)O[C@H]5[C@H](O)[C@H]3O)[C@H]3COC(=O)[C@H]23)OCO4)cc(OC)c1O [Teniposide] is higher in normalised viability: 81.9% for the first, 98.2% for the second.

Going from CCc1cncnc1N1CCN(Cc2nc3ccc(C(F)(F)F)cc3[nH]2)CC1 to Oc1ncc(N(CCCl)CCCl)c(O)n1 [Uracil mustard], the normalised viability falls from 111% to 82.3%.

test system: HCC1937; test: as above; conditions: 0.1 nM; incubation time: 72 h
In short: as §1

First: COc1cc2c(Oc3ccc4[nH]c(C)cc4c3F)ncnc2cc1OCCCN1CCCC1 [Cediranib]
Second: C=CC(=O)N1CCC[C@@H](n2nc(-c3ccc(Oc4ccccc4)cc3)c3c(N)ncnc32)C1
The normalised viability of the first is higher: 113% for the first, 93.3% for the second.

same assay, conditions: 1 nM; incubation time: 72 h

Compared with NCCCNCCSP(=O)(O)O [Amifostine], Nc1nc2[nH]cc(CCc3ccc(C(=O)N[C@@H](CCC(=O)O)C(=O)O)cc3)c2c(=O)[nH]1 [Pemetrexed] is lower in normalised viability: 91.8% for the first, 84.5% for the second.

First: C[C@H]1C[C@@H]2[C@H]([C@@H](O)C[C@@]3(C)[C@H]2CC[C@]3(O)C(=O)CO)[C@@]2(C)C=CC(=O)C=C12 [Methylprednisolone]
Second: COc1cc([C@@H]2c3cc4c(cc3[C@@H](O[C@@H]3O[C@@H]5CO[C@@H](c6cccs6)O[C@H]5[C@H](O)[C@H]3O)[C@H]3COC(=O)[C@H]23)OCO4)cc(OC)c1O [Teniposide]
The normalised viability of the first is lower: 83.7% for the first, 94% for the second.

Going from CCc1cncnc1N1CCN(Cc2nc3ccc(C(F)(F)F)cc3[nH]2)CC1 to Oc1ncc(N(CCCl)CCCl)c(O)n1 [Uracil mustard], the normalised viability rises from 86.6% to 101%.

Reference: the supplement of paper PMC4862054
